Data reported in patent US20080039461A1, “Treatment of pain by inhibition of p38 map kinase” (priority 2002, published 2008).
Read-outs that look alike come from different tables or passages of the source.

Columns and labels:
[1] = system: NMDA-induced hyperalgesia; assay: hyperalgesia induced by intrathecal NMDA; format: in vivo, rat; conditions: IT NMDA 0.3 μg; MK801 10 μg, IT SD 3-60 μg, IT SB 1-30 μg, SA 10 μg
From the text: Male Sprague-Dawley rats (300-350 g) were implanted under isoflurane anesthesia with lumbar polyethylene (PE-10) catheters according to a modified method originally described in Physiol. Behav. 17, 1031 (1976). […] IT saline and 5% DMSO alone had no effect on behavior or protein expression/phosphorylation.

[2] = system: thermal hyperalgesia; assay: thermal hyperalgesia, Plantar test (Hargreaves), intraplantar carrageenan; format: in vivo, Sprague Dawley Rats
Experimental: (§1) The effects of p38 MAP kinase inhibitors on Mechanical and Thermal Hyperalgesia were evaluated as follows. Sprague Dawley Rats were evaluated in carageenan induced models whereby an intraplantar injection of carageenan was made into the left paw. At approximately 2 and 4 hour post carageenan, the left hind limb of each rat was assessed for the development of thermal hyperalgesia relative to a p38 MAP kinase inhibitor (SC), vehicle, indomethacin, and the vehicle for indomethacin. Indomethacin, a known nonsteroidal analgesic, was used as a control reference in this study. Assessment of mechanical and thermal hyperalgesia was accomplished through the use of a Randall Selitto Analgesiometer and the Hargreaves Plantar Device, respectively. Approximately 10 minutes after intraperitoneal dosing, or 30 minutes following oral indomethacin treatment, each animal was lightly anaesthetized (isoflurane in oxygen) and an intraplantar injection of carageenan was made into the left paw. Animals were allowed to recover from anesthesia. As set forth above in the carageenan model, the effect of SC was evaluated with respect to attenuation of the development of thermal hyperalgesia at either of the 2 and 4 hours post-carrageenan time points tested. As above with respect to mechanical hyperalgesia, observation of statistically significant thermal hyperalgesia development was made at both the 2 and 4 hour periods (8.2±1.5 s; P≦0.05 and 7.0±1.5 s; P≦0.01, respectively), compared to vehicle pre dose measurements (12.7±1.0 s). […] As set forth in Example 2 above, Sprague Dawley rats were evaluated in the intraplantar carageenan model. The animals were administered the p38 MAP kinase inhibitor SA, vehicle, indomethacin, and the vehicle for indomethacin. After dosing, the animals were assessed for the development of mechanical hyperalgesia and thermal hyperalgesia using the Randall Selitto Analgesiometer and the Hargreaves Plantar Device, respectively.

[3] = system: mechanical hyperalgesia; assay: mechanical hyperalgesia, Randall Selitto test, intraplantar carrageenan; format: in vivo, Sprague Dawley Rats
Experimental: as §1, with “anesthesia. Mechanical hyperalgesia was tested using the Randall-Selittlo test. Randall, L. & Selitto, J., Arch Int Pharmacodyn (1957) 110:409-419. The carageenan model was established as” for “anesthesia. As”, “forth above. […] In” for “forth above in”, “the same animals treated with SC,” for “the carageenan model,”, “the paw withdrawal threshold increased from a” for “the effect of SC was evaluated with respect to attenuation of the development of thermal hyperalgesia at either of the 2 and 4 hours post-carrageenan time points tested. As above with respect to mechanical hyperalgesia, observation of statistically significant thermal hyperalgesia development was made at both the 2 and 4 hour periods (8.2±1.5 s; P≦0.05 and 7.0±1.5 s; P≦0.01, respectively), compared to vehicle”, “dose threshold of 159±8 g to 177±17 g, 2 hours post-carrageenan.” for “dose measurements (12.7±1.0 s).”

[4] = biological target: T1, p38 MAPK (Homo sapiens, UniProt Q16539); assay: p38 MAPK phosphorylation assay (similar to Kumar); format: biochemical
T1 construct: expressed in transfected cells; host or cells: HeLa (kinase immunoprecipitated from lysates of transfected, stimulated cells)
T1 sequence (Q16539 whole entry): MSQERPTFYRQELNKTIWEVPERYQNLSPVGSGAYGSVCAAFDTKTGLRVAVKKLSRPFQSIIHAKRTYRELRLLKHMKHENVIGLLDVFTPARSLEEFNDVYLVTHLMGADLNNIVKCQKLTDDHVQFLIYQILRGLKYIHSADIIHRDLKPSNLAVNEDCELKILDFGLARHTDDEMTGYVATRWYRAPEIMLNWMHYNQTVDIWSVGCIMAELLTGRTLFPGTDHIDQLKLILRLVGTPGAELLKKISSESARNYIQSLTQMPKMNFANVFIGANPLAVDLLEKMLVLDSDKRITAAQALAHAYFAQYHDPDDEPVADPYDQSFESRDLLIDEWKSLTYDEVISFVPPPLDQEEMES
Experimental: Alternative assays involving in vitro analysis of potential inhibitors include those where cells (HeLa) transfected with DNA coding for relevant kinases can be activated with substances such as sorbitol, IL-1, TNF, or PMA (phorbol myristate acetate). After immunoprecipitation of cell lysates, equal aliquots of immune complexes of the kinases are pre-incubated for an adequate time with a specific concentration of the potential inhibitor followed by addition of kinase substrate buffer mix containing labeled ATP and GST-ATF2 or MBP. After incubation, kinase reactions are ceased by the addition of SDS loading buffer. Phosphorylated substrate is resolved through SDS-PAGE and visualized and quantitated in a phosphorimager. Both p38 regulation, in terms of phosphorylation, and IC50 values can be determined by quantitation. […] Res. Commun. […]

[5] = system: carrageenan-induced thermal hyperalgesia; assay: carrageenan-induced thermal hyperalgesia (Hargreaves-type device); format: in vivo, rat; conditions: intravenous administration, pre injury
Experimental: Hyperalgesia was induced in the rat's right hindpaw by intraplantar injection of carrageenan (2 mg in 0.1 ml of a […] solution (weight/volume) in physiological saline). To assess the thermally evoked paw withdrawal time, a device modeled after that described by Hargreaves (1988) was used. See Hargreaves K, Dubner R, Brown F, Flores C, Joris J. A new and sensitive method for measuring thermal nociception in cutaneous hyperalgesia, Pain, 32, 77-88 (1988). The device consisted of a glass surface on top of which the rats were placed. The glass surface was heated by a focused projection bulb below the glass surface. The first sign of discomfort is usually expressed as an attempt to sit up and lick the forepaws by the experimental animal. This response indicates a threshold of pain under the predetermined conditions. Dancing and jumping about by an undrugged animal is an indicator of unbearable pain; whereas drugged animals more commonly withdraw the hind paws and keep them close to their abdomen. A timer was actuated with the light source and latency defined as the time required for the paw to be withdrawn from the glass surface. See Dirig D M, Isakson P C, and Yaksh T L. J Pharmacol Exp Ther., 285, 1031-8 (1998).

[6] = system: discomfort of a dental procedure; assay: pain associated with a dental procedure; format: in vivo; conditions: approximately 1 hours before the procedure; SF 40 mg/kg, SG 20 mg/kg
Experimental: A subject scheduled for a dental procedure, the filling of a cavity in a tooth, is administered approximately 40 mg/kg of the p38 MAP kinase inhibitor SF approximately 1 hours before the procedure is to begin. No other analgesics or anesthetics are administered.
A subject scheduled for a dental procedure, the filling of a cavity in a tooth, is administered approximately 20 mg/kg of the p38 MAP kinase inhibitor SG approximately 1 hours before the procedure is to begin. No other analgesics or anesthetics are administered.

[7] = system: post-activity related discomfort; assay: pain associated with athletic endeavor; format: in vivo; conditions: before a long distance race; SH 50 mg/kg, SI 20 mg/kg, SM 40 mg/kg
Experimental: A subject preparing for an athletic endeavor, the running of a long distance race, is administered approximately 50 mg/kg of SH approximately 30 minutes before the endeavor is to begin. No other analgesics or anesthetics are administered. The athlete participates in and completes the endeavor.
A subject preparing for an athletic endeavor, the running of a long distance race, is administered approximately 20 mg/kg of SI approximately 1 hours before the endeavor is to begin. No other analgesics or anesthetics are administered. The athlete participates in and completes the endeavor.
A subject preparing for an athletic endeavor, the running of a long distance race, is administered approximately 40 mg/kg of SM approximately 1 hours before the endeavor is to begin. No other analgesics or anesthetics are administered. The athlete participates in and completes the endeavor.

[8] = system: recovery from the procedure; assay: adjunct to opioid anesthesia for Cesarean section; format: in vivo; conditions: in opioid solution, subarachnoid; SL 60 mg/kg, SJ 630 mg/kg, SK 50 mg/kg
Experimental: A person scheduled for a Cesarean section is prepared according to standard guidelines. A subarachnoid block is performed in the sitting position, following the administration of 1-2 liters of crystalloid solution. Skin infiltration with local anaesthetic is performed at the L2-3 or L3-L4 interspace. A spinal needle introducer is used to facilitate insertion of the needle into the patient. The needle is introduced into the epidural space and perforates the dura. The emergence of cerebrospinal fluid indicates proper placement of the needle. An opiod solution containing approximately 60 mg/kg of SL is administered and injected slowly of a ten to fifteen second time interval. […] The needle is then removed and resulting wound is dressed. The Cesarean section proceeds according to a standard protocol.
A person scheduled for a Cesarean section is prepared according to standard guidelines. A subarachnoid block is performed in the sitting position, following the administration of 1-2 liters of crystalloid solution. Skin infiltration with local anaesthetic is performed at the L2-3 or L3-L4 interspace. A spinal needle introducer is used to facilitate insertion of the needle into the patient. The needle is introduced into the epidural space and perforates the dura. The emergence of cerebrospinal fluid indicates proper placement of the needle. An opiod solution containing approximately 630 mg/kg of SJ is administered and injected slowly of a ten to fifteen second time interval. […] The needle is then removed and resulting wound is dressed. The Cesarean section proceeds according to a standard protocol.
A person scheduled for a Cesarean section is prepared according to standard guidelines. A subarachnoid block is performed in the sitting position, following the administration of 1-2 liters of crystalloid solution. Skin infiltration with local anaesthetic is performed at the L2-3 or L3-L4 interspace. A spinal needle introducer is used to facilitate insertion of the needle into the patient. The needle is introduced into the epidural space and perforates the dura. […]

[9] = assay similar to the phosphorylation assay (Kumar), read-out: p38 MAPK activity, relative IC50 value

With `C[C@]12N[C@H](Cc3ccccc31)c1ccccc12` [MK801] the “hyperalgesia induced by IT NMDA” value [1] was “reversed”.

For `COc1cc2c(cc1C(=O)N1CC(C)C(Cc3ccc(F)cc3)CC1C)c(C(=O)C(=O)N(C)C)cn2C` (stereo not drawn) [SA], the “attenuation of thermal hyperalgesia” value ([2]; Example 3, oral, lower dose levels) was “no significant attenuation”, the withdrawal latency ([2]; Example 3, oral, 4 hours) was 11.1 ± 1.4 s and the paw withdrawal threshold ([3]; Example 3, oral, 30 minutes prior to carrageenan, 4 hours) was 159 ± 19 g. It also gave an IC50 [4, 9] of under 5 nM.

`C[C@@H]1CN(Cc2ccc(F)cc2)[C@@H](C)CN1C(=O)c1cc2c(C(=O)C(=O)N(C)C)cn(C)c2cc1Cl` [SC] showed a withdrawal latency ([2]; Example 2, first of two dose levels (not given), 2 hours) of 11.5 ± 1.1 s, a withdrawal latency ([2]; Example 2, first of two dose levels (not given), 4 hours) of 10.2 ± 1.5 s and a withdrawal latency ([2]; Example 2, second of two dose levels (not given), 2 hours) of 11.6 ± 1.1 s. The withdrawal latency ([2]; Example 2, second of two dose levels (not given), 4 hours) was 10.2 ± 0.9 s, the paw withdrawal threshold ([3]; Example 2, SC intraperitoneal, 2 hours post-carrageenan) was 177 ± 17 g and the paw withdrawal threshold ([3]; Example 2, SC intraperitoneal, 4 hour post-carrageenan) was 153 ± 14 g.

For `COc1cc2[nH]cc(C(=O)C(=O)N(C)C)c2cc1C(=O)N1CC(C)N(Cc2ccc(F)cc2)CC1C` (stereo not drawn) [SE], the carageenan induced hyperalgesia [5] was “Attenuation of the carageenan induced hyperalgesia” and the IC50 [4, 9] was under 5 nM.

For `COc1cc2c(cc1C(=O)N1CCC(Cc3ccc(F)cc3)CC1)c(C(=O)C(=O)O)cn2C` [SF], the “discomfort during dental procedure” value [6] was “reduced level of discomfort” and the IC50 [4, 9] was under 5 nM.

With `COc1cc2c(cc1C(=O)N1CCC(Cc3ccc(F)cc3)CC1)c(C(=O)C(=O)N1CCN(C)CC1)cn2C` [SG] the “discomfort during dental procedure” value [6] was “reduced level of discomfort” and the IC50 [4, 9] was under 5 nM.

`Cn1cc(C(=O)C(=O)N2CCCC2)c2cc(C(=O)N3CCC(Cc4ccc(F)cc4)CC3)c(Cl)cc21` [SH] was tested, and the IC50 [4, 9] was under 5 nM and the post-activity related discomfort [7] was “reduced level of post-activity related discomfort”.

For `COCn1cc(C(=O)C(=O)N(C)C)c2cc(C(=O)N3C[C@H](C)N(Cc4ccc(F)cc4)C[C@H]3C)c(OC)cc21` [SI], the IC50 [4] was under 5 nM and the post-activity related discomfort [7] was “reduced level of post-activity related discomfort”.

`C[C@@H]1CN(Cc2ccc(F)cc2)[C@@H](C)CN1C(=O)c1cc2c(C(=O)C(=O)N3CCOCC3)cn(C)c2cc1Cl` [SJ] was tested, and the “recovery after Cesarean section” value [8] was “recovers more rapidly from the procedure” and the IC50 [4, 9] was under 5 nM.

For `COc1cc2[nH]cc(C(=O)C(=O)N3CCOCC3)c2cc1C(=O)N1CCC(Cc2ccc(F)cc2)CC1` [SK], the “recovery after Cesarean section” value [8] was “recovers more rapidly from the procedure” and the IC50 [4, 9] was under 5 nM.

For `Cc1[nH]c2cc(Cl)c(C(=O)N3CCC(Cc4ccc(F)cc4)CC3)cc2c1C(=O)C(=O)N1CCN(C)CC1` [SL], the “recovery after Cesarean section” value [8] was “recovers more rapidly from the procedure” and the IC50 [4, 9] was under 5 nM.

With `COc1cc2c(cc1C(=O)N1CCC(=Cc3ccc(F)cc3)CC1)c(C(=O)C(=O)N(C)C)cn2C` [SM] the IC50 [4, 9] was under 5 nM and the post-activity related discomfort [7] was “reduced level of post-activity related discomfort”.

With `COc1ccc2c(c1)c(CC(=O)O)c(C)n2C(=O)c1ccc(Cl)cc1` [indomethacin, reference compound] the “increase of withdrawal latency” value ([2]; Example 2, 10 mg/kg p.o., 2 hours post-carrageenan) was “not significant”, the withdrawal latency ([2]; Example 2, 10 mg/kg p.o., 4 hours) was 12.5 ± 1.4 s and the withdrawal latency ([2]; Example 3, 10 mg/kg p.o., 2 hours) was 13.1 ± 0.9 s. For the same molecule, the withdrawal latency ([2]; Example 3, 10 mg/kg p.o., 4 hours) was 9.3 ± 1.3 s, the paw withdrawal threshold ([3]; Example 2, oral 10 mg/kg, 2 hours) was 180 ± 21 g and the paw withdrawal threshold ([3]; Example 2, oral 10 mg/kg, 4 hours) was 188 ± 17 g. It also gave a paw withdrawal threshold ([3]; Example 3, oral 10 mg/kg, 4 hours) of 177 ± 16 g.
